Biological target: T1, G9a (Homo sapiens, UniProt Q96KQ7)
T1 construct: endogenous in cells; host or cells: MDA-MB-231
T1 sequence (Q96KQ7 1-1210): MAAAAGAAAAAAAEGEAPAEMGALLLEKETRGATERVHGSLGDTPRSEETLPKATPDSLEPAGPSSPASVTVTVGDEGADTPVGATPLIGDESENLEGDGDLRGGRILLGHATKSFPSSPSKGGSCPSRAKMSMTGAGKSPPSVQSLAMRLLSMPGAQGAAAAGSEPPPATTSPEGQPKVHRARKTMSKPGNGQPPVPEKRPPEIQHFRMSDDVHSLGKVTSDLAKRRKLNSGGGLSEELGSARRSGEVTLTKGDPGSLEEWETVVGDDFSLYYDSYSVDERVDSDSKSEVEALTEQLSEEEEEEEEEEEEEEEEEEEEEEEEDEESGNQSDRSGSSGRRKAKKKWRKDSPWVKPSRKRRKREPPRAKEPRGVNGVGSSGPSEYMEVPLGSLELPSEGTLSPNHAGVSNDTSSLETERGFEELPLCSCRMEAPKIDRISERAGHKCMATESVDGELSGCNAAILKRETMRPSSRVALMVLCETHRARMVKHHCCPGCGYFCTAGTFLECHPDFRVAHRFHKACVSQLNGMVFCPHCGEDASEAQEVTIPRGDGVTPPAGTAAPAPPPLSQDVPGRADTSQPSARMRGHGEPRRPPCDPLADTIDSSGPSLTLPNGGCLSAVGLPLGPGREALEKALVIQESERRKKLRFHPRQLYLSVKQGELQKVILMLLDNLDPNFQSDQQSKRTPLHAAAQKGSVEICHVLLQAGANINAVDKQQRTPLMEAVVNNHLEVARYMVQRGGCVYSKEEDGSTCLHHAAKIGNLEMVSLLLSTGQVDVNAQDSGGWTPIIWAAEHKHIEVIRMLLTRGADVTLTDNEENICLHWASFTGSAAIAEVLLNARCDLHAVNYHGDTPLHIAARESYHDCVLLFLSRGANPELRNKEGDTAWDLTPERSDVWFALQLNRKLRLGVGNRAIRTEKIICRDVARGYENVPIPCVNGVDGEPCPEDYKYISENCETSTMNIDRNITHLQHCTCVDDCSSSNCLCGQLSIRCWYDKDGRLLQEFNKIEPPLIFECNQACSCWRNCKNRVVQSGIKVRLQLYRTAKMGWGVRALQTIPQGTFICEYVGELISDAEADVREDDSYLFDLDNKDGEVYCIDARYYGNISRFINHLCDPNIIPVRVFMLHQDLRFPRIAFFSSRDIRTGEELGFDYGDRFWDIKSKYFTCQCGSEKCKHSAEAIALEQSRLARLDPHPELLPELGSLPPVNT
Assay: H3K9Me2 cell immunofluorescence in-cell Western (ICW) assay
Format: cell-based
Settings: MDA-MB-231 cell line, 48 h

IC50: > 100 µM
Structure (SMILES): CN1CCCN(c2nc(NC3CCN(Cc4ccccc4)CC3)c3ccc(OCCCCCCC(=O)NO)cc3n2)CC1 [Compound 30]
